± gives the standard deviation of the averaged measurements.
How the values were obtained:
[1] = compound: COc1cc2c(cc1O)CC[C@@H]1[C@@H]2CC[C@]2(C)[C@@H](O)CC[C@@H]12 [2-METHOXYESTRADIOL]; experiment: surviving fraction relative to DMSO-only wells; higher = less growth inhibition; conditions: exposure time: 5 days
Method in brief: (§1)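 At 250–500 cells per well in 384-well plates, log-phase tumour cell lines were seeded and, 24 hours on, exposed continuously for five days to inhibitors at 0.5, 1, 5, 10, 50, 100, 500 and 1000 nM. Viability readout was CellTiter-Glo luminescence, reported as surviving fraction normalised to the median of DMSO-only wells.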

[2] = compound: COc1ccc(C2=N[C@@H](c3ccc(Cl)cc3)[C@@H](c3ccc(Cl)cc3)N2C(=O)N2CCNC(=O)C2)c(OC(C)C)c1 [NUTLIN3]; experiment: as above; conditions: exposure time: 5 days
Method in brief: as §1

Test System | surviving fraction ([1]; 0.5 nM) | surviving fraction ([1]; 1 nM) | surviving fraction ([1]; 5 nM) | surviving fraction ([1]; 10 nM) | surviving fraction ([1]; 50 nM) | surviving fraction ([1]; 100 nM) | surviving fraction ([1]; 500 nM) | surviving fraction ([1]; 1000 nM) | surviving fraction ([2]; 0.5 nM) | surviving fraction ([2]; 1 nM) | surviving fraction ([2]; 5 nM) | surviving fraction ([2]; 10 nM) | surviving fraction ([2]; 50 nM) | surviving fraction ([2]; 100 nM) | surviving fraction ([2]; 500 nM) | surviving fraction ([2]; 1000 nM)
MDAMB436 BREAST | 0.944 ± 0.012 | 0.951 ± 0.19 | 1 ± 0.016 | 0.953 ± 0.065 | 0.956 ± 0.065 | 0.971 ± 0.045 | 0.779 ± 0.12 | 0.62 ± 0.079 | 0.91 ± 0.076 | 0.835 ± 0.092 | 0.923 ± 0.033 | 0.928 ± 0.063 | 0.924 ± 0.074 | 0.895 ± 0.12 | 0.881 ± 0.041 | 0.941 ± 0.074
MDAMB453 BREAST | 1.04 ± 0.059 | 0.995 ± 0.032 | 1.02 ± 0.079 | 1.02 ± 0.037 | 1.08 ± 0.037 | 1.05 ± 0.048 | 0.511 ± 0.072 | 0.257 ± 0.014 | 1.02 ± 0.053 | 1.05 ± 0.029 | 1.07 ± 0.053 | 1.08 ± 0.024 | 1.13 ± 0.083 | 1.13 ± 0.13 | 1.04 ± 0.066 | 1.05 ± 0.035
MDAMB468 BREAST | 0.994 ± 0.12 | 1.08 ± 0.056 | 1.03 ± 0.053 | 1.13 ± 0.072 | 1.09 ± 0.055 | 1.15 ± 0.065 | 1.01 ± 0.081 | 0.99 ± 0.064 | 0.994 ± 0.026 | 0.978 ± 0.019 | 1.07 ± 0.071 | 1.02 ± 0.067 | 1.06 ± 0.07 | 1.04 ± 0.076 | 1.04 ± 0.049 | 0.982 ± 0.041
MFM223 BREAST | 1.11 ± 0.1 | 1.11 ± 0.062 | 1.1 ± 0.093 | 1.17 ± 0.35 | 1.06 ± 0.034 | 0.973 ± 0.026 | 0.384 ± 0.057 | 0.16 ± 0.032 | 1.07 ± 0.079 | 1.04 ± 0.13 | 1.08 ± 0.058 | 1.06 ± 0.027 | 1.12 ± 0.045 | 1.12 ± 0.073 | 1.12 ± 0.063 | 1.07 ± 0.068
MG63 BONE | 0.991 ± 0.015 | 1.008 ± 0.0075 | 1.02 ± 0.014 | 1.01 ± 0.018 | 1.04 ± 0.029 | 1.05 ± 0.021 | 0.971 ± 0.034 | 0.861 ± 0.03 | 1.01 ± 0.039 | 1 ± 0.014 | 1.07 ± 0.046 | 1.05 ± 0.019 | 1.06 ± 0.029 | 1.05 ± 0.018 | 0.989 ± 0.042 | 1.01 ± 0.043
MHM BONE | 1.02 ± 0.035 | 1.01 ± 0.033 | 1.04 ± 0.049 | 1.03 ± 0.05 | 1.04 ± 0.029 | 1.03 ± 0.045 | 0.975 ± 0.015 | 0.673 ± 0.048 | 0.995 ± 0.017 | 0.998 ± 0.019 | 1.03 ± 0.028 | 1.02 ± 0.024 | 1.01 ± 0.023 | 1.02 ± 0.046 | 0.963 ± 0.018 | 0.9187 ± 0.0085
NCIH441 LUNG | 1.1 ± 0.058 | 1.03 ± 0.073 | 1.08 ± 0.036 | 1.03 ± 0.065 | 1.03 ± 0.097 | 1.03 ± 0.084 | 0.922 ± 0.09 | 0.575 ± 0.093 | 1.04 ± 0.092 | 1.04 ± 0.028 | 1.01 ± 0.058 | 1.05 ± 0.051 | 1.07 ± 0.095 | 1.08 ± 0.1 | 1.2 ± 0.06 | 1.14 ± 0.065
NOS1 BONE | 1.19 ± 0.077 | 1.15 ± 0.063 | 1.27 ± 0.18 | 1.28 ± 0.14 | 1.13 ± 0.23 | 1.22 ± 0.097 | 0.981 ± 0.055 | 0.438 ± 0.036 | 1.14 ± 0.072 | 0.978 ± 0.1 | 1.142 ± 0.0078 | 1.17 ± 0.16 | 1.14 ± 0.071 | 1.15 ± 0.1 | 1.08 ± 0.042 | 1.08 ± 0.04
NY BONE | 0.95 ± 0.026 | 0.952 ± 0.014 | 0.983 ± 0.021 | 0.994 ± 0.017 | 1.03 ± 0.018 | 1 ± 0.031 | 0.106 ± 0.0015 | 0.057 ± 0.0036 | 1 ± 0.019 | 0.95 ± 0.034 | 0.997 ± 0.033 | 1.015 ± 0.0098 | 1.05 ± 0.048 | 1.01 ± 0.034 | 0.925 ± 0.036 | 0.972 ± 0.012
OS25HAL BONE | 0.828 ± 0.2 | 0.94 ± 0.029 | 0.961 ± 0.021 | 0.945 ± 0.042 | 1 ± 0.086 | 1.05 ± 0.072 | 0.501 ± 0.092 | 0.169 ± 0.014 | 0.975 ± 0.014 | 0.998 ± 0.018 | 0.979 ± 0.013 | 0.974 ± 0.03 | 1.06 ± 0.0081 | 1.064 ± 0.0045 | 1.052 ± 0.0056 | 1.06 ± 0.013
OSHN BONE | 1.03 ± 0.012 | 1.046 ± 0.0025 | 1.05 ± 0.026 | 1.031 ± 0.0067 | 1.054 ± 0.0092 | 1.068 ± 0.007 | 1.04 ± 0.033 | 0.044 ± 0.0036 | 1.06 ± 0.036 | 1.05 ± 0.057 | 1.06 ± 0.034 | 1.05 ± 0.044 | 1.09 ± 0.058 | 1.07 ± 0.033 | 1.08 ± 0.034 | 1.07 ± 0.029
PCI30 HEADNECK | 0.783 ± 0.016 | 0.857 ± 0.019 | 1.03 ± 0.039 | 0.985 ± 0.057 | 1.01 ± 0.078 | 0.982 ± 0.051 | 0.421 ± 0.048 | 0.216 ± 0.046 | 1.01 ± 0.034 | 0.93 ± 0.019 | 1.04 ± 0.026 | 1.06 ± 0.064 | 1.14 ± 0.062 | 1.09 ± 0.05 | 1.02 ± 0.041 | 1.04 ± 0.092
RDES SOFT TISSUE | 1.26 ± 0.16 | 1.26 ± 0.086 | 1.15 ± 0.046 | 1.29 ± 0.11 | 1.29 ± 0.15 | 1.17 ± 0.14 | 1.13 ± 0.12 | 0.178 ± 0.034 | 1.25 ± 0.074 | 1.32 ± 0.076 | 1.07 ± 0.044 | 1.18 ± 0.14 | 1.17 ± 0.13 | 1 ± 0.17 | 1.4 ± 0.22 | 1.25 ± 0.17
S68 BREAST | 0.845 ± 0.17 | 0.812 ± 0.15 | 0.879 ± 0.13 | 1.16 ± 0.3 | 1.24 ± 0.23 | 0.985 ± 0.067 | 0.617 ± 0.036 | 0.325 ± 0.017 | 0.854 ± 0.16 | 0.785 ± 0.32 | 0.92 ± 0.03 | 0.976 ± 0.16 | 1.28 ± 0.18 | 0.99 ± 0.07 | 0.936 ± 0.25 | 1.01 ± 0.22
SAOS2 BONE | 1.09 ± 0.099 | 1.16 ± 0.065 | 1.17 ± 0.019 | 1.17 ± 0.05 | 1.28 ± 0.21 | 1.22 ± 0.051 | 0.769 ± 0.076 | 0.272 ± 0.013 | 1.16 ± 0.028 | 0.981 ± 0.037 | 1.13 ± 0.043 | 1.09 ± 0.048 | 1.15 ± 0.017 | 1.2 ± 0.029 | 1.12 ± 0.033 | 1.043 ± 0.0023
SCC003 HEADNECK | 0.936 ± 0.064 | 0.88 ± 0.13 | 1.03 ± 0.045 | 0.976 ± 0.074 | 1.04 ± 0.043 | 1.11 ± 0.017 | 0.867 ± 0.15 | 0.734 ± 0.087 | 1.05 ± 0.12 | 1.01 ± 0.081 | 1.03 ± 0.12 | 1 ± 0.088 | 1.06 ± 0.062 | 1.12 ± 0.07 | 1.09 ± 0.089 | 1.07 ± 0.13
SCC36 HEADNECK | 1.09 ± 0.053 | 1.03 ± 0.052 | 1.09 ± 0.083 | 1.04 ± 0.091 | 1.22 ± 0.065 | 1.14 ± 0.016 | 0.94 ± 0.096 | 0.251 ± 0.029 | 1.07 ± 0.15 | 1.04 ± 0.087 | 1.16 ± 0.014 | 1.04 ± 0.03 | 1.19 ± 0.069 | 1.17 ± 0.044 | 1.04 ± 0.1 | 1.1 ± 0.051
SCC47 HEADNECK | 0.816 ± 0.11 | 0.912 ± 0.15 | 0.977 ± 0.055 | 1.1 ± 0.16 | 1.09 ± 0.11 | 1.12 ± 0.15 | 0.838 ± 0.046 | 0.872 ± 0.12 | 1.08 ± 0.082 | 1.03 ± 0.023 | 1.14 ± 0.026 | 1.135 ± 0.0096 | 1.13 ± 0.051 | 1.16 ± 0.088 | 1.07 ± 0.052 | 1.14 ± 0.099
SCC90 HEADNECK | 0.927 ± 0.058 | 0.721 ± 0.076 | 1.02 ± 0.1 | 0.923 ± 0.12 | 1 ± 0.1 | 0.875 ± 0.099 | 0.185 ± 0.017 | 0.102 ± 0.013 | 1.05 ± 0.051 | 1.04 ± 0.22 | 1.13 ± 0.15 | 1.11 ± 0.23 | 1.12 ± 0.12 | 1.02 ± 0.026 | 0.997 ± 0.098 | 1.04 ± 0.098
